Experimental findings from US9399032B2, “Methods and compositions for treating degenerative and ischemic disorders” (The General Hospital Corporation, priority 2009, dated 2016) are described below.

Where a name gives a salt, the structure may show the parent alone.

One assay concerns MCH58 fibroblasts. Description: Glucose versus galactose cell growth screen (metabolic state-dependent lethality).
Details: not given
As to `[O-][n+]1ccccc1[S-].[O-][n+]1ccccc1[S-].[Zn+2]` [pyrithione zinc], the “Sglu/gal (log10 fold change) Score” value was −0.25.

Still in this assay, the particulars now being: approximately 10 μM compound, 72 hours; log10 fold change of normalized cell number in glucose versus galactose.
As to 15-norcaryophyllen-3-one, the “Sglu/gal (log10 fold change) Score” value is −0.29.

For the molecule `CC(C)N(C(=O)CCl)c1ccccc1` [propachlor], the “Sglu/gal (log10 fold change) Score” value is −0.26.

In the case of `Nc1c2ccccc2nc2ccccc12` [aminacrine], the “Sglu/gal (log10 fold change) Score” value is given as −0.29.

`O=c1[nH]c2ccccc2n1C1CCN(CCCC(c2ccc(F)cc2)c2ccc(F)cc2)CC1` [Pimozide]: the “Sglu/gal (log10 fold change) Score” value is 0.18.

Turning to `O=c1[nH]c(=O)n([C@H]2C[C@H](O)[C@@H](CO)O2)cc1F` [floxuridine], the “Sglu/gal (log10 fold change) Score” value is reported as −0.28.

As to `CO[C@H]1C=C[C@@]23c4cc5c(cc4CN(C[C@@H]2O)[C@H]3C1)OCO5` [crinamine], the “Sglu/gal (log10 fold change) Score” value is reported as −0.22.

Regarding `CC1=C(O)C(=O)C=C2C1=CC=C1[C@@]2(C)CC[C@@]2(C)[C@@H]3C[C@](C)(C(=O)O)CC[C@]3(C)CC[C@]12C` [celastrol], the “Sglu/gal (log10 fold change) Score” value is −0.29.

`COc1cc2c(cc1OC)[C@@H]1C(=O)c3c(O)cc4c(c3O[C@@H]1CO2)C=CC(C)(C)O4` [Alpha-toxicarol]: the “Sglu/gal (log10 fold change) Score” value was 0.91.

For `Cl.Cl.O=C1c2c(O)ccc(O)c2C(=O)c2c(NCCNCCO)ccc(NCCNCCO)c21` [mitoxanthrone hydrochloride], the “Sglu/gal (log10 fold change) Score” value is listed as −0.73.

On to `CCCCCCCCCCCCCCCC[N+](C)(C)CCN(Cc1ccc(OC)cc1)c1ncccn1` [Thonzonium bromide], for which the “Sglu/gal (log10 fold change) Score” value was determined as 0.38.

As to `C=C1CC[C@@H]2[C@](C)(CO)[C@H](O)CC[C@@]2(C)[C@@H]1C/C=C1/C(=O)OC[C@H]1O` [andrographolide], the “Sglu/gal (log10 fold change) Score” value is on record as −0.46.

On to `CC[C@@]1(O)C(=O)OCc2c1cc1n(c2=O)Cc2cc3ccccc3nc2-1` [camptothecin], for which the “Sglu/gal (log10 fold change) Score” value is reported as −0.26.

On to `Cc1cc(C(C)(C)CC(C)(C)C)ccc1OCCOCC[N+](C)(C)Cc1ccccc1.[Cl-]` [Methyl benzethonium chloride], for which the “Sglu/gal (log10 fold change) Score” value was determined as 0.80.

Consider `C=C1C(=O)O[C@H]2C[C@@H]1C(OC(C)=O)C/C(C)=C/CC/C(C)=C/CC[C@@]2(C)O` (some centres unmarked) [crassin acetate], for which the “Sglu/gal (log10 fold change) Score” value is given as −0.35.

For `COc1cc([C@@H]2c3cc4c(cc3[C@H](O)[C@H]3COC(=O)[C@H]23)OCO4)cc(OC)c1OC` [Podophyllotoxin], the “Sglu/gal (log10 fold change) Score” value is −0.27.

As for `CO[C@@H]1C[C@@H](C[C@H]2CC[C@H](C)[C@H]([C@@H](C)C(=O)O)O2)O[C@]2(O[C@](C)([C@H]3CC[C@@](C)([C@@H]4O[C@@H]([C@H]5O[C@@](O)(CO)[C@H](C)C[C@@H]5C)C[C@@H]4C)O3)C[C@H]2C)[C@@H]1C` [nigericin sodium], the “Sglu/gal (log10 fold change) Score” value is given as −0.31.

Take `CC[n+]1c(-c2ccccc2)c2cc(N)ccc2c2ccc(N)cc21` [homidium bromide]: the “Sglu/gal (log10 fold change) Score” value is recorded as −0.54.

For `CC(=O)O[C@H]1C(=O)[C@@]2(C)[C@H]([C@H](OC(=O)c3ccccc3)[C@]3(O)C[C@H](OC(=O)[C@H](O)[C@@H](NC(=O)c4ccccc4)c4ccccc4)C(C)=C1C3(C)C)[C@]1(OC(C)=O)CO[C@@H]1C[C@@H]2O` [paclitaxel], the “Sglu/gal (log10 fold change) Score” value is listed as −0.22.

`CC[C@]1(O)C[C@@H]2CN(CCc3c([nH]c4ccccc34)[C@@](C(=O)OC)(c3cc4c(cc3OC)N(C)[C@H]3[C@@](O)(C(=O)OC)[C@H](OC(C)=O)[C@]5(CC)C=CCN6CC[C@]43[C@@H]65)C2)C1` [vinblastine sulfate]: the “Sglu/gal (log10 fold change) Score” value was −0.27.

For the molecule Clofilium tosylate, the “Sglu/gal (log10 fold change) Score” value was determined as 0.42.

Take `OC(c1cc(C(F)(F)F)nc2c(C(F)(F)F)cccc12)C1CCCCN1` (centres unmarked) [Mefloquine]: the “Sglu/gal (log10 fold change) Score” value was 0.20.

Take `CC[C@H]1CN2CCc3cc(OC)c(OC)cc3[C@@H]2C[C@@H]1C[C@H]1NCCc2cc(OC)c(OC)cc21` [emetine]: the “Sglu/gal (log10 fold change) Score” value is recorded as −0.22.

As to `Clc1ccc(C(Cn2ccnc2)OCc2csc3c(Cl)cccc23)c(Cl)c1` (centres unmarked) [Sertaconazole nitrate], the “Sglu/gal (log10 fold change) Score” value was 0.19.

For `CCCCC(CC)CNC(=N)NC(=N)NCCCCCCNC(=N)NC(=N)NCC(CC)CCCC` (centres unmarked) [Alexidine dihydrochloride], the “Sglu/gal (log10 fold change) Score” value came to 0.44.

As for `CC(C)n1c(/C=C/C(O)CC(O)CC(=O)O)c(-c2ccc(F)cc2)c2ccccc21` (centres unmarked) [Fluvastatin sodium salt], the “Sglu/gal (log10 fold change) Score” value was 0.16.

Take `CCN(CC)CCOc1ccc(C(=C(Cl)c2ccccc2)c2ccccc2)cc1` [Clomiphene citrate]: the “Sglu/gal (log10 fold change) Score” value is given as 0.21.

With `O=C1O[C@H]([C@@H](O)CO)C(O)=C1O` [Ascorbic acid], the “Sglu/gal (log10 fold change) Score” value was 0.15.

On to `COC(=O)[C@]1(C)CC[C@]2(C)CC[C@]3(C)C4=CCc5c(cc(O)c(O)c5C)[C@]4(C)CC[C@@]3(C)[C@@H]2C1` [pristimerol], for which the “Sglu/gal (log10 fold change) Score” value is −0.45.

For the molecule `N=C(N)c1ccc(OCCCCCOc2ccc(C(=N)N)cc2)cc1` [Pentamidine isethionate], the “Sglu/gal (log10 fold change) Score” value is listed as 0.24.

Regarding `CCN[C@H]1C[C@H](C)S(=O)(=O)c2sc(S(N)(=O)=O)cc21` [Dorzolamide hydrochloride], the “Sglu/gal (log10 fold change) Score” value was determined as 0.17.

In the case of `CCOC(=O)C1=C[C@]2(CC)CCCN3CCc4c(n1c1ccccc41)[C@@H]32` [Vinpocetine], the “Sglu/gal (log10 fold change) Score” value is recorded as 0.23.

As for `CN1CCC[C@@H]1CCO[C@](C)(c1ccccc1)c1ccc(Cl)cc1` [Clemastine fumarate], the “Sglu/gal (log10 fold change) Score” value was 0.19.

Regarding `CC(C)=CCC[C@]1(C)C=Cc2c(O)c3c(c(CC=C(C)C)c2O1)O[C@]12C(=C[C@@H]4C[C@H]1C(C)(C)O[C@@]2(C/C=C(/C)C(=O)O)C4=O)C3=O` [gambogic acid], the “Sglu/gal (log10 fold change) Score” value is −0.34.

`COc1ccc(C[C@H]2NC[C@H](O)[C@H]2OC(C)=O)cc1` [anisomycin]: the “Sglu/gal (log10 fold change) Score” value was −0.24.

Turning to `Cc1cc(N)c2ccccc2[n+]1CCCCCCCCCC[n+]1c(C)cc(N)c2ccccc21` [Dequalinium dichloride], the “Sglu/gal (log10 fold change) Score” value is 0.42.

Take `Oc1c(Cl)cc(Cl)c2cccnc12` [chloroxine]: the “Sglu/gal (log10 fold change) Score” value is recorded as −0.23.

With `COc1ccccc1OCCNCC(O)COc1cccc2[nH]c3ccccc3c12` (centres unmarked) [Carvedilol], the “Sglu/gal (log10 fold change) Score” value came out at 0.15.

Turning to `O=C(Nc1ccc([N+](=O)[O-])cc1Cl)c1cc(Cl)ccc1O` [Niclosamide], the “Sglu/gal (log10 fold change) Score” value was 0.15.

With `C[C@H]1CC[C@]2(NC1)O[C@H]1C[C@H]3[C@@H]4CC[C@H]5C[C@@H](O[C@@H]6O[C@H](CO)[C@H](O[C@@H]7O[C@H](CO)[C@@H](O)[C@H](O[C@@H]8OC[C@@H](O)[C@H](O)[C@H]8O)[C@H]7O[C@@H]7O[C@H](CO)[C@@H](O)[C@H](O)[C@H]7O)[C@H](O)[C@H]6O)CC[C@]5(C)[C@H]4CC[C@]3(C)[C@H]1[C@@H]2C` [tomatine], the “Sglu/gal (log10 fold change) Score” value is on record as −0.64.

With `COc1cc2c(cc1OC)[C@@H]1C(=O)c3ccc(O)c(CC=C(C)C)c3O[C@@H]1CO2` [Rotenonic acid], the “Sglu/gal (log10 fold change) Score” value was 0.33.

On to `COC(=O)[C@]1(C)CC[C@]2(C)CC[C@]3(C)C4=CC=C5C(=CC(=O)C(O)=C5C)[C@]4(C)CC[C@@]3(C)[C@@H]2C1` [pristimerin], for which the “Sglu/gal (log10 fold change) Score” value was −0.37.

Consider `C[C@@H]1CC[C@H]2[C@@H](C)C(=O)O[C@@H]3O[C@@]4(C)CC[C@@H]1[C@]32OO4` [Artemisinin], for which the “Sglu/gal (log10 fold change) Score” value was 0.17.

For `C#C[C@]1(OC(C)=O)CC[C@H]2[C@@H]3CCC4=C[C@@H](OC(C)=O)CC[C@@H]4[C@H]3CC[C@@]21C` [Ethynodiol diacetate], the “Sglu/gal (log10 fold change) Score” value is listed as 0.15.

As to `Cc1c(O)c(O)cc2c1CC=C1[C@@]2(C)CC[C@@]2(C)[C@@H]3C[C@](C)(C(=O)O)CC[C@]3(C)CC[C@]12C` [dihydrocelastrol], the “Sglu/gal (log10 fold change) Score” value was −0.31.

Regarding `CC(=O)O[C@H]1CC[C@@]2(C)[C@H](CC[C@@H]3[C@@H]2CC[C@]2(C)[C@@H](C4=CC(=O)OC4)[C@@H](OC(C)=O)C[C@]32O)C1` [gitoxigenin diacetate], the “Sglu/gal (log10 fold change) Score” value is −0.21.

Take Deguelin(-): the “Sglu/gal (log10 fold change) Score” value is recorded as 0.69.

`COc1cc2c(cc1OC)[C@@H]1C(=O)c3ccc4c(c3O[C@@H]1CO2)CC(C(C)C)O4` (stereo partly drawn) [Beta-dihydrorotenone]: the “Sglu/gal (log10 fold change) Score” value stood at 0.85.

Turning to `CCN(CC)CCCC(C)Nc1c2ccc(Cl)cc2nc2ccc(OC)cc12` (centres unmarked) [quinacrine hydrochloride], the “Sglu/gal (log10 fold change) Score” value is −0.30.

Turning to picropodophyllotoxin acetate, the “Sglu/gal (log10 fold change) Score” value is −0.24.

`COc1cc(C(=O)O)c2c(c1C)OC(=O)c1c(C)cc(O)c(C=O)c1O2` [Psoromic acid]: the “Sglu/gal (log10 fold change) Score” value came to 0.35.

Consider `O=C(N/N=C/c1ccc([N+](=O)[O-])o1)c1ccc(O)cc1` [Nifuroxazide], for which the “Sglu/gal (log10 fold change) Score” value came to 0.34.

Regarding `COc1cc2c(c(OC)c1OC)-c1ccc(OC)c(=O)cc1[C@@H](NC(C)=O)CC2` [Colchicine], the “Sglu/gal (log10 fold change) Score” value was −0.26.

Consider `CC1(C)C(=O)C=C[C@]2(C)[C@H]3CC[C@@]4(C)[C@H](c5ccoc5)OC(=O)[C@H]5O[C@]54[C@]3(C)C=C[C@@H]12` [7-desacetoxy-6,7-dehydrogedunin], for which the “Sglu/gal (log10 fold change) Score” value was −0.22.

Take `CN[C@H]1CC[C@@H](c2ccc(Cl)c(Cl)c2)c2ccccc21` [Sertraline hydrochloride]: the “Sglu/gal (log10 fold change) Score” value turned out to be 0.15.

The same assay, now with this note: approximately 10 μM compound, 72 hours; log10 fold change of normalized cell number in glucose versus galactose; listed as Methylbenzethonium chloride.
For the molecule `Cc1cc(C(C)(C)CC(C)(C)C)ccc1OCCOCC[N+](C)(C)Cc1ccccc1.[Cl-]` [Methyl benzethonium chloride], the “Sglu/gal (log10 fold change) Score” value was found to be 0.46.

Staying with this assay, now noted: galactose versus glucose.
For the molecule `CNCCC=C1c2ccccc2CCc2ccccc21` [nortriptyline], the “inhibitory activity against cell growth in galactose (SAR analysis)” value (“inhibitory activity against cell growth” for short) is given as “moderate inhibitory activity”.

In the case of `CN1CCN(C(c2ccccc2)c2ccc(Cl)cc2)CC1` (centres unmarked) [chlorcyclizine], the “inhibitory activity against cell growth” value is “more potent than that of homopiperazine analogue”.

As to `CN(C)CCC=C1c2ccccc2CCc2ccccc21` [amitriptyline], the “inhibitory activity against cell growth” value is “moderate inhibitory activity”.
